According to patent US20180169021A1, “RANOLAZINE MULTIPLE COMPRESSED TABLETS” (INTERQUIM, S.A., priority 2015, published 2018):
Values after ≈ are worked out from the molar mass of the structure shown. Like-named read-outs stand apart in the source and are kept apart here.

Assays:
[1] = quoted from WO0166093 A2; cited from earlier work
[2] = Dissolution in time of 500 mg ranolazine compressed into tablets, 900 mL aqueous media, paddle 100 rpm (FIG. 1); assay type: physicochemical; details: 100% ranolazine tablet
From the text: As shown in the previous table, ranolazine is much more soluble at acidic pH than in neutral or basic pH.

[3] = cited from earlier work

Q: Which results are given for `COc1ccccc1OCC(O)CN1CCN(CC(=O)Nc2c(C)cccc2C)CC1` (centres unmarked) [Ranolazine, N-(2,6-dimethylphenyl)-2-(4-(2-hydroxy-3-(2-methoxyphenoxy)propyl)piperazin-1-yl)acetamide]?
A: Plasma half-life [1]: relatively short; Time until all the ranolazine is dissolved ([2]; pH 1 (0.1 M HCl)): less than 30 minutes; Ranolazine dissolved ([2]; pH 6.8, 30 minutes): around 63%; Extent of dissolution ([2]; pH 6.8, 12 hours): not yet fully dissolved; Solubility ([3]; Solution pH 4.81): 161000 µg/mL (≈ 377 mM); USP Solubility Class ([3]; Solution pH 4.81): Freely Soluble; Solubility ([3]; Solution pH 4.89): 73800 µg/mL (≈ 173 mM); USP Solubility Class ([3]; Solution pH 4.89): Soluble; Solubility ([3]; Solution pH 4.90): 76400 µg/mL (≈ 179 mM); USP Solubility Class ([3]; Solution pH 4.90): Soluble; Solubility ([3]; Solution pH 5.04): 49400 µg/mL (≈ 116 mM); USP Solubility Class ([3]; Solution pH 5.04): Soluble; Solubility ([3]; Solution pH 5.35): 16700 µg/mL (≈ 39.1 mM); USP Solubility Class ([3]; Solution pH 5.35): Sparingly Soluble; Solubility ([3]; Solution pH 5.82): 5480 µg/mL (≈ 12.8 mM); USP Solubility Class ([3]; Solution pH 5.82): Slightly soluble; Solubility ([3]; Solution pH 6.46): 1630 µg/mL (≈ 3.81 mM); USP Solubility Class ([3]; Solution pH 6.46): Slightly soluble; Solubility ([3]; Solution pH 6.73): 830 µg/mL (≈ 1.94 mM); USP Solubility Class ([3]; Solution pH 6.73): Very slightly soluble; Solubility ([3]; Solution pH 7.08): 390 µg/mL (≈ 0.912 mM); USP Solubility Class ([3]; Solution pH 7.08): Very slightly soluble; Solubility ([3]; Solution pH 7.59*): 240 µg/mL (≈ 0.561 mM); USP Solubility Class ([3]; Solution pH 7.59*): Very slightly soluble; Solubility ([3]; Solution pH 7.79): 170 µg/mL (≈ 0.398 mM); USP Solubility Class ([3]; Solution pH 7.79): Very slightly soluble; Solubility ([3]; Solution pH 12.66): 180 µg/mL (≈ 0.421 mM); USP Solubility Class ([3]; Solution pH 12.66): Very slightly soluble; Solubility ([3]; low pH that occurs in the stomach, quoted from WO0166093 A2): relatively high
